Laboratory results: paper PMC11239005, “Preclinical studies of RA475, a guanidine-substituted spirocyclic candidate RPN13/ADRM1 inhibitor for treatment of ovarian cancer” (PLOS ONE, 2024)

Key:
[1] = parameters: method as in PMID 37315065; conditions: mice; cited from earlier work
[2] = Single increasing dose tolerability in CD-1 mice, IP; type: in vivo, mouse; conditions: CD-1, mouse, in vivo; mice, single dose, IP
Protocol: (§1) RA475 in 25% β-hydroxy propyl cyclodextrin in water was administered at increasing single doses to CD-1 mice (n = 3/group) via intraperitoneal injection.

CD-1 mice = test: as above; type: in vivo, mouse; conditions: CD-1 mice, single IP doses at or below 80 mg/Kg
Protocol: as §1

[3] = Stability in human liver microsomes; type: in vitro ADME; conditions: with or without NADPH, over 1 h
Protocol: (§2) Human and mouse liver microsomes and NADPH regenerating system solutions were purchased from Corning Life Sciences (Tewsbury, MA). Human and mouse K2EDTA-treated plasma was purchased from BioIVT (Westbury, NY). Metabolic studies in liver microsomes (0.125 mg/mL) were conducted in 1x PBS (pH 7.4), NADPH-generating system, and 10 μM RA475 in a final volume of 250 μL. An incubation mixture with or without NADPH-generating system, as well as a neat solution prepared without microsomes and NADPH-generating system was used. RA475 was added at the same concentration level into human and mouse EDTA plasma. All reactions were initiated with the addition of RA475. Incubations were performed in glass tubes maintained at 37°C in a shaker bath. At 0, 30, and 60 min, 10 μL samples were withdrawn from the reaction mixture, and 0.5 mL of acetonitrile containing internal standard was added to each. Samples were vortex-mixed and subjected to centrifugation for 5 min at 1430 x g. A 10 μL aliquot of the supernatant was injected onto the LC-MS/MS instrument for qualitative analysis using a temperature-controlled autosampling device operating at 5°C (See Pharmacokinetic section).

[4] = Stability in human plasma; type: in vitro ADME; conditions: 10 μM, 1 h at 37°C
Protocol: as §2

4UbFL in HCC1806 cells = test: 4UbFL reporter assay, HCC1806; type: cell-based; conditions: HCC1806 stably expressing 4UbFL, 4 h
Protocol: Sub-confluent cultures of cells were transfected with 4UbFL plasmid using TransIT 2020 reagent (Mirus Bio). Cells were seeded at 10,000 cells/well in 96-well plates 48 h post transfection, and incubated with compounds or vehicle (DMSO) at the doses and for the times indicated. Luciferase activity in cell lysate was determined with a luciferase assay kit (Promega) according to the manufacturer’s instructions. Bioluminescence was measured using a Glomax Multidetection system (Promega).
Fig 3 Impact of RA475 on proteasome function. […] Actin was used as loading control. […] After a 4 h incubation, the cells were lysed and the luciferase activity in each cell lysate was determined with a luciferase assay kit (Promega) according to the manufacturer’s instructions. Bioluminescence was measured by using a luminometer (Glomax Multidetection system, Promega) E) A patch was shaved of hair on one leg of CD-1 mice, and 10 μg 4UbFL plasmid in 20 μL of PBS was injected into the quadriceps femoralis muscle followed immediately by injection of the 2 Needle Array to 5 mm depth encompassing the injection site and square wave electroporation (ElectroSquarePorator 833, BTX-2 Needle array 5mm gap, Harvard apparatus) delivered as eight pulses at 106V for 20 ms with 200 ms intervals. […] Equally sized areas were analyzed using Living Image 2.20 software. […]

[5] = Human plasma protein binding, equilibrium dialysis; type: in vitro ADME; conditions: pH 7.4, dialysis 5 h
Protocol: (§3) The assay was performed in a multiple-use 96-well dialysis unit (HTD96b dialyzer). Each individual well unit consisted of 2 chambers separated by a vertically aligned dialysis membrane of predetermined pore size (MWCO 12–14 kDa). 120 μL of non-diluted plasma spiked with the compound (1 μM, final DMSO concentration 1%) was added to one chamber, and the same volume of PBS buffer pH 7.4 to the other chamber. The HTD96b dialyzer was covered with adhesive sealing film and incubated 5 h at 37°C while shaking at 100 rpm. For sample preparation, an aliquot of the contents of each chamber was mixed with the same volume of the blank opposite matrix. In order to define non-specific loss of the compound during this assay, a standard solution was created by mixing an aliquot of spiked plasma with blank buffer without dialysis. Two aliquots of the standard solution were incubated at 37°C, shaking at 100 rpm for 5 h (recovery samples). The other two aliquots were immediately diluted with acetonitrile and stored at 4°C until analysis (stability samples). All samples were diluted 5-fold with internal standard diluted in 100% methanol with subsequent plasma proteins sedimentation by centrifuging at 6000 rpm for 5 minutes. Supernatants were analyzed using LC-MS/MS. The percentage of plasma protein bound compound, recovery and stability were calculated using following equations. […]

[6] = Stability in mouse liver microsomes; type: in vitro ADME; conditions: with or without NADPH, over 1 h
Protocol: as §2

[7] = Stability in liver microsomes (species not separated in text); type: in vitro ADME
Protocol: as §2

[8] = target: human serum albumin protein (Homo sapiens, UniProt P02768); test: Human serum albumin protein binding; type: in vitro ADME; conditions: 1 μM, dialysis 5 h
Sequence of human serum albumin protein (P02768 25-609): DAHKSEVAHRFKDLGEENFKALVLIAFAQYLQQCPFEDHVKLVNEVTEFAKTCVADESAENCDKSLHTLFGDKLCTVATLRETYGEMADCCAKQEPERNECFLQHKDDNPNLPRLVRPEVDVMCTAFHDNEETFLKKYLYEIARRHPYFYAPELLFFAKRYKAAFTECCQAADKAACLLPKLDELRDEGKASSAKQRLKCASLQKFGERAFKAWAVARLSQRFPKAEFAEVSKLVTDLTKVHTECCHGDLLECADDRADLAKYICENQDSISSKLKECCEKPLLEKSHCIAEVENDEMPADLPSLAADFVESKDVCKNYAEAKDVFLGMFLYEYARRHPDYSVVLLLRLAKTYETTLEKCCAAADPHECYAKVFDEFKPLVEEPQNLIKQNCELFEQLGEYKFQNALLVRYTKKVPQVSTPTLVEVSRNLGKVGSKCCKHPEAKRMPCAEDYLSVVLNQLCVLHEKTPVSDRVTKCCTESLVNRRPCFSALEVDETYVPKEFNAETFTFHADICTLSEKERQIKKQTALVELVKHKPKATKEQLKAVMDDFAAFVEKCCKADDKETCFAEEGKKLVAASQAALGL
Protocol: as §3

SMILES	IP bioavailability [1]	oral bioavailability [1]	NOAEL [2]	adverse events, including weight loss (CD-1 mice)	degradation in liver microsomes [3]	stability in plasma [4]	4UbFL bioluminescence signal (4UbFL in HCC1806 cells)	fraction unbound at 5 h, 1 μM [5]	degradation in liver microsomes [6]	present after 1 h in liver microsomes [7]	binding to human serum albumin protein [8]
N#Cc1ccc(/C=C2/C(=O)/C(=C/c3ccc(C#N)cc3)C23CCNCC3)cc1 [Up284, reference compound]	87%	23%									
Cl.Cl.N#Cc1ccc(/C=C2/C(=O)/C(=C/c3ccc(C#N)cc3)C23CCN(C(=N)N)CC3)cc1 [RA475, 1,3-bis((E)-4-cyanobenzylidene)-2-oxo-7-azaspiro[3.5]nonane-7-carboximidamide dihydrochloride]			> 80 mg/kg	No evidence of adverse events	< 10%	did not degrade	dose dependent increases in bioluminescence signal	0.009	< 10%	93%	93.8%
